Publication PMC9786170, “The Pharmacological Potential of Novel Melittin Variants from the Honeybee and Solitary Bees against Inflammation and Cancer” (Toxins, 2022)

Key:
HEK293T cells = experiment: cAMP induction assay (pGloSensor-22F); type: cell-based, human; details: 2.5 and 25 µg/mL, pGloSensor luminescence, n = 4
Protocol: Figure 3 Melittin derivates alter the cellular concentration of cyclic adenosine monophosphate (cAMP). (A) For the cAMP induction assay, HEK293T cells transfected with pGloSensor-22F cAMP plasmid were treated with melittin derivates (0.25, 2.5, 25 µg/mL) in presence of the pGloSensor cAMP reagent, and luminescence was detected. (B) For the cAMP inhibition assay, HEK293T cells transfected with pGloSensor-22F cAMP plasmid were treated with melittin derivates (0.25, 2.5, 25 µg/mL) in presence of the pGloSensor cAMP reagent, stimulated with 5 µM forskolin, and luminescence was detected. Data are expressed as mean ± SEM. n = 4, * p ≤ 0.05 versus control.
HEK293T cells were transfected with pGloSensor-22F cAMP plasmid (E2301, Promega, Walldorf, Germany) using turbofect reagent (Thermofisher Scientific, Frankfurt am Main, Germany). […] For the induction assay (step one), the luminescence was detected (background, 3 measurements every 5 min) and then the melittin peptides (0.25, 2.5, 25 µg/mL) or 5 µM forskolin were added. The luminescence was detected (3 measurements every 5 min) using the plate reader (Spark, Tecan, Männedorf, Switzerland). For the inhibition assay (step tow), the melittin peptide-treated cells were then incubated with 5 µM forskolin and the luminescence was detected (3 measurements every 5 min). […]

[1] = system: TNF-activated EC monolayer; experiment: Adhesion of THP-1 leukocytes onto TNF-activated endothelial cells; type: cell-based, human; details: peptide 30 min, TNF 10 ng/mL 24 h, THP-1 adhesion 5 min, static, fluorescence, n = 2
Protocol: Figure 4 Influence of melittin derivates on inflammation-associated cell functions. (A,B) For the NO induction assay (A), RAW264.7 cells were treated with melittin peptides in the indicated concentrations for 24 h. For the NO inhibition assay (B), RAW264.7 cells were pretreated with melittin peptides in the indicated concentrations for 30 min and then stimulated with 100 ng/mL LPS for 24 h. NO was detected in the supernatant using the Griess method. […] THP-1 cell adhesion under static conditions. HUVECs were grown to confluence, preincubated with bee venoms for 30 min, and activated with TNF (10 ng/mL) for 24 h. For the leukocyte adhesion assay, untreated THP-1 cells were stained with CellTracker Green and were allowed to adhere to the treated HUVECs for 5 min. The adhesion of leukocytes onto Ecs was quantified by fluorescence measurements for all cell adhesion experiments. Data are expressed as means ± SEM, (A,B) n = 3, (C) n = 2. * p ≤ 0.05 vs. TNF (positive) control.
For the investigation of leukocyte adhesion under static conditions, HMEC-1 cells were seeded into 96-well plates and cultured until they became confluent. […] Then, the fluorescence signal from adherent THP-1 cells was measured by a Tecan Infinite F200 Pro microplate reader (Tecan, Männedorf, Switzerland) (excitation: 485 nm, emission: 535 nm).

Substance | prevention of cAMP synthesis, unstimulated cells (HEK293T cells) | adhesion of THP-1 leukocytes onto endothelial cells [1]
melittin [Melt, reference compound] | almost completely prevented cAMP synthesis | –
xylopin [Xac4] | – | reducing the inflammation-associated interaction of endothelial cells with leukocytes
